Measurements taken from patent US5637591A, “Antimicrobial and anticollagenase activity of phenazine-5, 10-dioxide and derivatives” (Fuji ImmunoPharmaceuticals Corp., priority 1995, dated 1997).
Like-named read-outs stand apart in the source and are kept apart here.

Experiments:
[1] = system: P. gingivalis; test: bone loss after oral colonization with P. gingivalis in mice, systemic administration; type: in vivo, BALB/c mice; settings: infected mice, IP daily; 25 d (2-methylphenazine-5,10-dioxide) or 40 d (Tetracycline)
Description: An animal model for testing the antimicrobial activity of the invention against P. gingivalis was conducted by inducing oral colonization of the microbe in BALB/c mice. Drug (2-methylphenazine-5,10-dioxide or Tetracycline) or control (2.5% cyclodextran) was administered intraperitoneally once each day for 25 days (2-methylphenazine-5,10-dioxide) or 40 days (Tetracycline). On the day following the last dose administration, the rear molars of the mice were swabbed and the swabs incubated in a growth medium to assess the presence of P. gingivalis. Mice were then sacrificed and jaw bones harvested for evaluation of bone loss.

[2] = type: in vivo; settings: for Other Signs of Toxicity: mouse, in vivo, ip
From the text: The potential for toxic side effects following systemic administration similar to the method used in the efficacy study was investigated by administering the compound 2-methylphenazine-5,10-dioxide to mice either in single or multiple intraperitoneal (IP) injections.

[3] = type: in vivo; settings: for Other Signs of Toxicity: in vivo
Description: Toxicity was also evaluated in rodents via intravenous (IV) and oral (PO) routes of administration across a range of dose levels.

Cc1ccc2c(c1)[n+]([O-])c1ccccc1[n+]2[O-] [2-methylphenazine-5,10-dioxide]
NONE: Other Signs of Toxicity ([2]; 15 mg/kg) | Other Signs of Toxicity ([2]; 30 mg/kg) | Other Signs of Toxicity ([2]; 60 mg/kg) | Other Signs of Toxicity ([3]; mouse, iv, 5 mg/kg) | Other Signs of Toxicity ([3]; mouse, iv, 30 mg/kg) | Other Signs of Toxicity ([3]; mouse, iv, 40 mg/kg) | Other Signs of Toxicity ([3]; mouse, po, 800 mg/kg) | Other Signs of Toxicity ([3]; mouse, po, 1000 mg/kg) | Other Signs of Toxicity ([3]; rat, iv, 10 mg/kg) | Other Signs of Toxicity ([3]; rat, iv, 20 mg/kg) | Other Signs of Toxicity ([3]; rat, po, 50 mg/kg) | Other Signs of Toxicity ([3]; rat, po, 80 mg/kg) | Other Signs of Toxicity ([3]; rat, po, 100 mg/kg) | Other Signs of Toxicity ([3]; rat, po, 200 mg/kg)
1/2: Deaths ([3]; Mice, 1000 mg/kg PO, 100% Cremaphor, 1 administration)
reduced the observed bone loss: effect of treatment on bone loss [1]
Abnormal Clin Obs: Other Signs of Toxicity ([3]; mouse, iv, 50 mg/kg)
0: Deaths ([2]; mice, 15 mg/kg IP, 2.5% CD, 17 injections) | Deaths ([2]; mice, 30 mg/kg IP, DMSO, 15 injections) | Deaths ([2]; mice, 60 mg/kg IP, 10% CD, 1 injection) | Deaths ([3]; Mice, 5 mg/kg IV, 25% Cremaphor, 1 administration) | Deaths ([3]; Mice, 5 mg/kg IV, 30% Encapsin CD, 1 administration) | Deaths ([3]; Mice, 5 mg/kg IV, 100% DMSO, 1 administration) | Deaths ([3]; Mice, 30 mg/kg IV, 10% Cremaphor, 1 administration) | Deaths ([3]; Mice, 40 mg/kg IV, 25% Cremaphor, 1 administration) | Deaths ([3]; Mice, 50 mg/kg IV, 30% Encapsin CD, 1 administration) | Deaths ([3]; Mice, 800 mg/kg PO, 100% Cremaphor, 1 administration) | Deaths ([3]; Rats, 5 mg/kg IV, 20% Cremaphor, 1 administration) | Deaths ([3]; Rats, 10 mg/kg IV, 25% Encapsin CD/10% DMSO, 1 administration) | Deaths ([3]; Rats, 20 mg/kg IV, 30% Encapsin CD, 1 administration) | Deaths ([3]; Rats, 50 mg/kg PO, 2% Brij 35/Water, 1 administration) | Deaths ([3]; Rats, 50 mg/kg PO, 10% Brij 35/Mineral Oil, 1 administration) | Deaths ([3]; Rats, 50 mg/kg PO, 10% Brij 35/Water, 1 administration) | Deaths ([3]; Rats, 50 mg/kg PO, Water, 1 administration) | Deaths ([3]; Rats, 80 mg/kg PO, 10% Cremaphor, 1 administration) | Deaths ([3]; Rats, 100 mg/kg PO, 2% Brij 35, 1 administration) | Deaths ([3]; Rats, 100 mg/kg PO, 10% Arlacel 83/Corn Oil, 1 administration) | Deaths ([3]; Rats, 100 mg/kg PO, 100% PEG400, 1 administration) | Deaths ([3]; Rats, 100 mg/kg PO, 110% Encapsin CD, 1 administration) | Deaths ([3]; Rats, 200 mg/kg PO, 100% Cremaphor, 1 administration)
non-toxic: toxicity ([2]; mice, IP, at several times the therapeutic dose)
